Test results reported in patent US20060117411A1, “Enhancing plant pathogen resistance via increasing BiP levels” (priority 1998, published 2006).

Columns and labels:
[1] = system: tobacco protoplasts (GUS, cell viability); experiment: Transient expression in tobacco protoplasts (pNL200), GUS internal marker; type: cell-based, Nicotiana tabacum; conditions: tunicamycin 20 μg/mL, 20 hr
Text: We have established a model system based on the comparison of protein biosynthesis in the cytosol and on the rough ER using transient expression. A plasmid was constructed (pNL200, FIG. 12A) containing two genes, one encoding the secreted barley α-amylase (Rogers, 1985) and the other encoding the cytosolic marker β-glucuronidase (GUS; Jefferson et al., 1987). α-Amylase was used to measure secretory protein biosynthesis, and GUS was used to control for transfection efficiency and overall cell viability. We compared cells under normal culture conditions with cells subjected to ER stress by treatment with tunicamycin. […]
Tobacco leaf protoplasts (from transformed or untransformed plants) were prepared, and electroporation experiments were performed as previously described (Denecke and Vitale, 1995), with minor modifications to the electroporation conditions. […] After 24 or 48 hr, the protoplasts were analysed by enzymatic assay or by protein gel blotting. […]
GUS activity in protoplasts was measured with a […] assay. six mililiters of floated protoplasts were diluted in TEX buffer (B5 salts, 250 mg/L NH4NO3, 750 mg/L CaCl2, 500 mg/L MES, and 0.4 M sucrose, pH 5.7) and were spun down by the addition of 20 mL of 250 mM NaCl. […] The absorbance was measured at 415 nm against a blank containing stop buffer that had been incubated at 37° C. for the duration of the reaction time.

[2] = system: BiP mRNA; experiment: Tunicamycin treatment of tobacco protoplasts, Northern blot of BiP; type: cell-based, Nicotiana tabacum; conditions: tunicamycin 20 μg/mL, 2.5 hrs
Method: To compare the CDE- and UPR-mediated induction of BiP, we wanted to test if both stimuli are additive. […] This is not surprising as protoplasts are prepared with CDEs. These protoplasts were then treated with tunicanycin, to superimpose the UPR onto the CDE response. […] The additional ER stress could trap BiP in malfolded protein complexes, thus making it unavailable to promote PR protein synthesis on the rough ER.
Protoplasts RNAs were extracted as described by Jones et al., (1985). Leaves were ground in frozen liquid nitrogen and transferred to NTES buffer (0.1 M NaCl, 10 mM Tris pH 7.5, 1 mM EDTA, 1% SDS). Protoplasts samples were frozen in liquid nitrogen and thawed in NTES buffer. RNA was extracted after adding an equal volume of phenol/chloroform. Ethanol precipitation was carried out after incubation at −20° C. for 16 hours. The pellet was resuspended and RNA was selectively precipitated with LiCl (2M LiCl) for 2 hours on ice. The pellet was washed with 70% ethanol and resuspended in diethyl pyrocarbonate-treated water. Gel blots of total RNA denatured in formamide and formaldehyde were prepared. RNA was blotted onto Hybond-N membrane (Amersham Corp), as described by the manufacturer. […]

[3] = system: β-1,3-glucanase gene expression; experiment: Leaf treatment of tobacco plants, Northern blot of β-1,3-glucanase transcripts in local and systemic leaves; type: in vivo, Nicotiana tabacum; conditions: 3 and 8 hours of incubation
Method: We have shown that treatment of tobacco plants with cell wall-degrading enzymes (CDE) leads to the rapid induction of β-1,3-glucanase and other PR genes, both locally and systemically (Vidal et al, 1997). […] We used a commercial preparation of fungal CDEs instead of custom made Erwinia-derived hydrolases to increase reproducibility. One leaf from each tobacco plant was treated with CDEs and the induction of BiP gene expression was analysed in the treated (local) and untreated (systemic) leaves from the same plant. […] This induction was observed locally as well systemically with the same timing and intensity. β-1,3-glucanase transcript accumulation is detectable only after 4 hours of incubation and reaches its plateau after 8 hours as described previously (Vidal et al, 1997). Whereas BiP induction is transient, β-1,3-glucanase mRNA levels continue to be high after prolonged incubation times (24-48 hours). […] The signal involved in the systemic response of BiP gene expression must therefore be transported very rapidly from the local leaf to the distal leaves.
Even though BiP induction occurs prior to β-1,3 glucanase induction, we cannot rule out that other, as yet unidentified defence related proteins are induced more rapidly and perhaps before BiP in our experimental system. […]

For tunicamycin, the “cell viability monitored with the internal marker GUS” value [1] was “does not affect cell viability”, the “BiP induction on top of the CDE response in protoplasts” value [2] was “further induction” and the “expression of β-1,3-glucanase, local and systemic” value [3] was “neither locally nor systemically induced”.
